How the values were obtained:
Homo sapiens [1] = species on record: Homo sapiens; assay: Selectivity ratio of IC50 for LCK (unknown origin) to IC50 for BTK (unknown origin)
[2] = target: Tyrosine-protein kinase Srms (Homo sapiens, UniProt Q9H3Y6); assay: Inhibition of SRMS (unknown origin)
Homo sapiens [3] = species on record: Homo sapiens; assay: Selectivity ratio of IC50 for FGR (unknown origin) to IC50 for BTK (unknown origin)
Homo sapiens [4] = species on record: Homo sapiens; assay: Selectivity ratio of IC50 for BMX (unknown origin) to IC50 for BTK (unknown origin)
Homo sapiens [5] = species on record: Homo sapiens; assay: Selectivity ratio of IC50 for YES1 (unknown origin) to IC50 for BTK (unknown origin)
[6] = target: Voltage-gated inwardly rectifying potassium channel KCNH2 (Homo sapiens, UniProt Q12809); assay: Inhibition of human ERG by [35S]-MK499 displacement or iKr channel assay
Chain of Voltage-gated inwardly rectifying potassium channel KCNH2 (Q12809 whole entry): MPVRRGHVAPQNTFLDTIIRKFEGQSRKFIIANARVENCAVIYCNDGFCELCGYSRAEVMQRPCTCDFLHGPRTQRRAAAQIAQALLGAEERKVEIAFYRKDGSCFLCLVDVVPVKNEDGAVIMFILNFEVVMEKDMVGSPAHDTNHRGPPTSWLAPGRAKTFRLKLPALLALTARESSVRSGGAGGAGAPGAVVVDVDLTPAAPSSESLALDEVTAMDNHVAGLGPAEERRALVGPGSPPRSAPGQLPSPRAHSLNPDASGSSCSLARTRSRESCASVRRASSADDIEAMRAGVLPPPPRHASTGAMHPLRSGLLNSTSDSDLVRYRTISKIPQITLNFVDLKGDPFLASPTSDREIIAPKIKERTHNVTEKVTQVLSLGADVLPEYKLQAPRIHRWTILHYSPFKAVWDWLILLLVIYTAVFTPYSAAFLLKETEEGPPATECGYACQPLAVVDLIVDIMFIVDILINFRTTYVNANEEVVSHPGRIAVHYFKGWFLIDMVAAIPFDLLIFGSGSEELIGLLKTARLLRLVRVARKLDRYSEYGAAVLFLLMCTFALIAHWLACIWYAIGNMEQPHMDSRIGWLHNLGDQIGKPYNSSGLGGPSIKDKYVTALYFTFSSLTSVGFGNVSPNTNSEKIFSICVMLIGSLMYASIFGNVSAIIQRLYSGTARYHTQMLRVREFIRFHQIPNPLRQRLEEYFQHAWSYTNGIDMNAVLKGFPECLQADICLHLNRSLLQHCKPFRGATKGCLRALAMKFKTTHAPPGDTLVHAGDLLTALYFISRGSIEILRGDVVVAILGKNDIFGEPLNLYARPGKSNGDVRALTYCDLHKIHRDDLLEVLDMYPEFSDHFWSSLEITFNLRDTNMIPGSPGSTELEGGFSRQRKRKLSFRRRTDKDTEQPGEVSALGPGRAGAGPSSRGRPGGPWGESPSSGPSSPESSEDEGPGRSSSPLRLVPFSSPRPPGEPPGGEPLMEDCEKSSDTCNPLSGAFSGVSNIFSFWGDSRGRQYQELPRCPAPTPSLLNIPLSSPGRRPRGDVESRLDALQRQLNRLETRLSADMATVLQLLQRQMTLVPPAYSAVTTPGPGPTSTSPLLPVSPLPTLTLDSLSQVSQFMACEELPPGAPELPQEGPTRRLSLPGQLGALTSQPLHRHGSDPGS

Homo sapiens [7] = species on record: Homo sapiens; assay: Selectivity ratio of IC50 for FYN (unknown origin) to IC50 for BTK (unknown origin)
Homo sapiens [8] = species on record: Homo sapiens; assay: Selectivity ratio of IC50 for BLK (unknown origin) to IC50 for BTK (unknown origin)
[9] = target: T1, Tyrosine-protein kinase Tec (Homo sapiens, UniProt P42680); assay: Inhibition of TEC (unknown origin)
T1 sequence (P42680 whole entry): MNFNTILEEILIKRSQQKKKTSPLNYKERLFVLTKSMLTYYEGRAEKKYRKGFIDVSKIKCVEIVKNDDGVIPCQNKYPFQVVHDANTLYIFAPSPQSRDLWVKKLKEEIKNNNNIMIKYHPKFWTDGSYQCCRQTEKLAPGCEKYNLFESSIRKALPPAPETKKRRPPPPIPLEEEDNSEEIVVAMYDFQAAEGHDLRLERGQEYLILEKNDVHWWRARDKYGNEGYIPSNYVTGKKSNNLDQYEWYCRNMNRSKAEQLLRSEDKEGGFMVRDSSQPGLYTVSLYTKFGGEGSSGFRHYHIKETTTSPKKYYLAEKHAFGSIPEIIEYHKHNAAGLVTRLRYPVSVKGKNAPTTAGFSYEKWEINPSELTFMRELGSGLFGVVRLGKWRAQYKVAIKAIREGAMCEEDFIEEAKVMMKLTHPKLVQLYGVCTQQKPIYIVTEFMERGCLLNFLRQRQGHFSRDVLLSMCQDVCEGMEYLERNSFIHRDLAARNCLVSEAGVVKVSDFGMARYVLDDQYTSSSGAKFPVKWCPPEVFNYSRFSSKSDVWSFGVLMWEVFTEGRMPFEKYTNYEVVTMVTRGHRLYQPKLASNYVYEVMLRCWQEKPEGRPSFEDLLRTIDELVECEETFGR

[10] = target: T2, Cytoplasmic tyrosine-protein kinase BMX (Homo sapiens, UniProt P51813); assay: Inhibition of BMX (unknown origin)
T2 sequence (P51813 whole entry): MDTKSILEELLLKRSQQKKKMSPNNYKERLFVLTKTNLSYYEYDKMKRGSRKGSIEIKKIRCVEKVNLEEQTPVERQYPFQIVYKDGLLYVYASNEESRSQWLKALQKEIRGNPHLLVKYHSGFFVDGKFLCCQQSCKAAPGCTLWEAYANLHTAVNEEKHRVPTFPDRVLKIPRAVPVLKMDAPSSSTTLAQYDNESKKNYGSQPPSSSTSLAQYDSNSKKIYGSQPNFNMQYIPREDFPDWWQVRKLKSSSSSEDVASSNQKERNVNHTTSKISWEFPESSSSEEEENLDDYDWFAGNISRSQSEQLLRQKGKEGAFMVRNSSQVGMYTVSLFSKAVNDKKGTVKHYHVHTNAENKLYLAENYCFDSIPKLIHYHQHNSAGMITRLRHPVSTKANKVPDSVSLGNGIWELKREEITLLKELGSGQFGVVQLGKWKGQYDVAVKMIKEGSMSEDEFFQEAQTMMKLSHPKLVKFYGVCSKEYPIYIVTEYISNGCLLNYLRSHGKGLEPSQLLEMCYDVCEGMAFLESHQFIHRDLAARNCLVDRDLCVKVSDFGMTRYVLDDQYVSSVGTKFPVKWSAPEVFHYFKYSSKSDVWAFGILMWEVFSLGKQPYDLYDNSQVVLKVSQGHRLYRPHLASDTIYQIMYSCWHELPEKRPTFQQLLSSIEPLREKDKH

[11] = target: Tyrosine-protein kinase Yes (Homo sapiens, UniProt P07947); assay: Inhibition of YES1 (unknown origin)
Chain of Tyrosine-protein kinase Yes (P07947 whole entry): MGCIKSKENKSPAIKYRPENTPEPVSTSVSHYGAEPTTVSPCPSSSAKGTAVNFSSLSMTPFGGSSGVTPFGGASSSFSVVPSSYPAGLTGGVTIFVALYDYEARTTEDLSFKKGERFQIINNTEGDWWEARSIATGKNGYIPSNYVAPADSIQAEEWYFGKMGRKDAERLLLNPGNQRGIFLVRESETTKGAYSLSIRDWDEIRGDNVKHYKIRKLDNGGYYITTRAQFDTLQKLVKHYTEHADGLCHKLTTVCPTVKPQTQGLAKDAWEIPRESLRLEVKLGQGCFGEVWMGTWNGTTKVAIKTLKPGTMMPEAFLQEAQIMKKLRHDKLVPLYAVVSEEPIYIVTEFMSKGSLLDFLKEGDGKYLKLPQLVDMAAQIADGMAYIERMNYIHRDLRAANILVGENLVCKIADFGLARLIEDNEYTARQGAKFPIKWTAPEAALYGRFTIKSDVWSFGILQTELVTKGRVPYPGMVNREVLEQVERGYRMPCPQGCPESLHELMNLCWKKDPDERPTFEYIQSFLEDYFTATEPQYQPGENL

Homo sapiens [12] = species on record: Homo sapiens; assay: Selectivity ratio of IC50 for SRMS (unknown origin) to IC50 for BTK (unknown origin)
[13] = Half life in rat at 10 mg/kg; format: ADME, organism-based; conditions: in vivo
[14] = Total clearance in rat plasma at 10 mg/kg; format: ADME, organism-based
Homo sapiens [15] = species on record: Homo sapiens; assay: Selectivity ratio of IC50 for FRK (unknown origin) to IC50 for BTK (unknown origin)
[16] = target: T3, Tyrosine-protein kinase TXK (Homo sapiens, UniProt P42681); assay: Inhibition of TXK (unknown origin)
T3 sequence (P42681 whole entry): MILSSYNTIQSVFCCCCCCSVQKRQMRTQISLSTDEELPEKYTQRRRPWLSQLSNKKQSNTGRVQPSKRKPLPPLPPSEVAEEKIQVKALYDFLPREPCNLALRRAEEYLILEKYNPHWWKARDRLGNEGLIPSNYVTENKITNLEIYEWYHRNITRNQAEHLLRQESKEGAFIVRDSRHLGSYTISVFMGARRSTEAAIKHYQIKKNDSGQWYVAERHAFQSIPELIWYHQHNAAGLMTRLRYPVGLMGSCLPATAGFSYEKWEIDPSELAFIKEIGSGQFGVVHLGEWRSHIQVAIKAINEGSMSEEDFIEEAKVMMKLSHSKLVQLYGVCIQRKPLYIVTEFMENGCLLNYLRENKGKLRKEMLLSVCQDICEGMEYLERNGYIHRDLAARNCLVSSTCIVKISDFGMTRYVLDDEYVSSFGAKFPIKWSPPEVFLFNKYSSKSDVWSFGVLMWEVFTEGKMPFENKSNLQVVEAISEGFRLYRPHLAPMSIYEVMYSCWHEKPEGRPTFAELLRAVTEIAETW

[17] = target: Proto-oncogene tyrosine-protein kinase Src (Homo sapiens, UniProt P12931); assay: Inhibition of SRC (unknown origin)
Chain of Proto-oncogene tyrosine-protein kinase Src (P12931 2-536 limits assumed): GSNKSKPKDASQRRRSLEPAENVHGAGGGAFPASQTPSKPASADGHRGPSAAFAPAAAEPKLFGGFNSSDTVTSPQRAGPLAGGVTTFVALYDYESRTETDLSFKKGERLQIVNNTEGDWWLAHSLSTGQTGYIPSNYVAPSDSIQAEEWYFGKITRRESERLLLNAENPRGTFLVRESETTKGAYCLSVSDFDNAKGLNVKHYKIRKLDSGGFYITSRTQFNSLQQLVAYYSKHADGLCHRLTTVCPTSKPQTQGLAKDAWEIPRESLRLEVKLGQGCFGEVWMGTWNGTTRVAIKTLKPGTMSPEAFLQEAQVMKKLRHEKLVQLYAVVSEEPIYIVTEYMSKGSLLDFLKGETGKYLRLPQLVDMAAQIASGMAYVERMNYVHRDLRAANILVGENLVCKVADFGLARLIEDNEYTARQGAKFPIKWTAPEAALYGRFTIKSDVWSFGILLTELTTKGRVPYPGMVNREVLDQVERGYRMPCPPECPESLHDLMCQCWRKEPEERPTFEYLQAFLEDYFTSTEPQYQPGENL

[18] = target: Tyrosine-protein kinase Fyn (Homo sapiens, UniProt P06241); assay: Inhibition of FYN (unknown origin)
Chain of Tyrosine-protein kinase Fyn (P06241 whole entry): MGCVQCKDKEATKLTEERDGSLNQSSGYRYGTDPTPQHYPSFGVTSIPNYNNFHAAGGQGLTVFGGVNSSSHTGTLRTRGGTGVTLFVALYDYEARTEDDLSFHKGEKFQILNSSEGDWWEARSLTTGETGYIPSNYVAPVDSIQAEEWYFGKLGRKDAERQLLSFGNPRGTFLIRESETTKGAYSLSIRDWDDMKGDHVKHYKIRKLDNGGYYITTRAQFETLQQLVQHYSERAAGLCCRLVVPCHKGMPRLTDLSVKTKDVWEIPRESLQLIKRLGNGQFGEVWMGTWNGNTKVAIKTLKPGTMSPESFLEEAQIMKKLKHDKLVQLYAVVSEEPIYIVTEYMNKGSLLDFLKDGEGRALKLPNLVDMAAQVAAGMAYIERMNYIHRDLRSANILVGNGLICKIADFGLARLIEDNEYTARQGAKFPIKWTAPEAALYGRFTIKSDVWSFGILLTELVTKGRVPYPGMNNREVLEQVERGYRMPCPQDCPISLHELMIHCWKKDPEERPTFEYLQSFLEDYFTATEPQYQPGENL

[19] = target: Tyrosine-protein kinase BTK (Homo sapiens, UniProt Q06187); assay: Inhibition of recombinant full-length His6-tagged BTK (unknown origin) expressed in baculovirus infected Sf9 cells using biotinylated A5 peptide as substrate preincubated for 60 mins followed by substrate addition measured after 120 mins by LANCE TR-FRET assay
Chain of Tyrosine-protein kinase BTK (Q06187 whole entry): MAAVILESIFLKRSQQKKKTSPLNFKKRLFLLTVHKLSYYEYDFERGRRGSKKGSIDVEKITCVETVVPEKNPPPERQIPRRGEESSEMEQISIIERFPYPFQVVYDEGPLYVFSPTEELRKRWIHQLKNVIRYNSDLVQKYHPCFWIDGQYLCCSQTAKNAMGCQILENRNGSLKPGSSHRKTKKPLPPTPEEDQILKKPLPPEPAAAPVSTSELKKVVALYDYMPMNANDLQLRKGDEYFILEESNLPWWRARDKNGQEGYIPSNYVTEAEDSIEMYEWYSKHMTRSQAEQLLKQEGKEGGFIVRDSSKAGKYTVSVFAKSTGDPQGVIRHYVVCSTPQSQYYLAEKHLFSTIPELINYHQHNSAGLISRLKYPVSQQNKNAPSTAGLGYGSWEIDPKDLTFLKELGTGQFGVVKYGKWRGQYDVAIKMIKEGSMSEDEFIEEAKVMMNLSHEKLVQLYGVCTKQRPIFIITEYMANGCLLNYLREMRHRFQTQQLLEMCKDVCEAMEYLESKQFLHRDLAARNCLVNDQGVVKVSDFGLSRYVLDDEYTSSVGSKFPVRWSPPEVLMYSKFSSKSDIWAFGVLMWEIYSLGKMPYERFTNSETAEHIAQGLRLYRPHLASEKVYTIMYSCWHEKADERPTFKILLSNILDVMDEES

[20] = target: Tyrosine-protein kinase FRK (Homo sapiens, UniProt P42685); assay: Inhibition of FRK (unknown origin)
Chain of Tyrosine-protein kinase FRK (P42685 whole entry): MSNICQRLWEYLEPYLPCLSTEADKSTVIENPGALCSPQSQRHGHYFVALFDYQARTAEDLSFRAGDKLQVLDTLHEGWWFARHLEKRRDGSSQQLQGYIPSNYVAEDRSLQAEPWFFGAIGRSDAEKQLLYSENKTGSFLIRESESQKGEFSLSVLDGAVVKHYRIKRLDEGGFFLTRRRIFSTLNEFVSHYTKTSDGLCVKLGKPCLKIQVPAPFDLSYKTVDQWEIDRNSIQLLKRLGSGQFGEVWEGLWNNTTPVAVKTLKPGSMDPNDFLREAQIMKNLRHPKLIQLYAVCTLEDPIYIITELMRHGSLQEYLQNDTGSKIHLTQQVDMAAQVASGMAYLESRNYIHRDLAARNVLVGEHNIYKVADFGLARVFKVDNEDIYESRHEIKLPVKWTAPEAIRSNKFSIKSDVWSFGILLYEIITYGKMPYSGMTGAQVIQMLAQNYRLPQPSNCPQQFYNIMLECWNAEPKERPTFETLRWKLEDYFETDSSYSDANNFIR

Homo sapiens [21] = species on record: Homo sapiens; assay: Selectivity ratio of IC50 for TXK (unknown origin) to IC50 for BTK (unknown origin)
Homo sapiens [22] = species on record: Homo sapiens; assay: Selectivity ratio of IC50 for ERBB4 (unknown origin) to IC50 for BTK (unknown origin)
[23] = target: Tyrosine-protein kinase Blk (Homo sapiens, UniProt P51451); assay: Inhibition of BLK (unknown origin)
Chain of Tyrosine-protein kinase Blk (P51451 whole entry): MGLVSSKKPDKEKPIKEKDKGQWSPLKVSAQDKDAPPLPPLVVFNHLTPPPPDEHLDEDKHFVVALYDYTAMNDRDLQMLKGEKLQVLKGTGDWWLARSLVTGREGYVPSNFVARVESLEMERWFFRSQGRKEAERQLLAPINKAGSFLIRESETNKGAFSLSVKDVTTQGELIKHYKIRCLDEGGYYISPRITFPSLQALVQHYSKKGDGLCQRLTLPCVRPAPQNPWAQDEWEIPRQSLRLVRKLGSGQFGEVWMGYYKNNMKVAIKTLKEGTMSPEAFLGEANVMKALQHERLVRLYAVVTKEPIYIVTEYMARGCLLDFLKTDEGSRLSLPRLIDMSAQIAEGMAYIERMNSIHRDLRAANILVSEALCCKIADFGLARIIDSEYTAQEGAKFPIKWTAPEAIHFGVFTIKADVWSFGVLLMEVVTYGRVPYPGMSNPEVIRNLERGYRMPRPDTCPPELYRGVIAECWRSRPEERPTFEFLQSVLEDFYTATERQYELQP

Chain of Tyrosine-protein kinase Srms (Q9H3Y6 whole entry): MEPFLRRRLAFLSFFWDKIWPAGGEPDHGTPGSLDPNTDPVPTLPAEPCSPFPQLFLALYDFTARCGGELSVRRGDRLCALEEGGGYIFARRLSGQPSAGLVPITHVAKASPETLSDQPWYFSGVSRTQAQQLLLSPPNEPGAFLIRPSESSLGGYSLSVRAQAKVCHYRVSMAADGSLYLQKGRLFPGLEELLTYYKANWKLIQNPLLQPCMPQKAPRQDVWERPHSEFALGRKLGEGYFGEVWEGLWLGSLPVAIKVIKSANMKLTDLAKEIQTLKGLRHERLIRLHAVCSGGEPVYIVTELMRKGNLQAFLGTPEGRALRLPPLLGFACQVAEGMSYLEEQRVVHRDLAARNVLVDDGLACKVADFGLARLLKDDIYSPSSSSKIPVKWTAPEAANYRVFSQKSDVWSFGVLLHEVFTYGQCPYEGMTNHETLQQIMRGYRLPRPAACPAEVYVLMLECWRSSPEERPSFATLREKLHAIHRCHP

Ratio IC50 (Homo sapiens [1]): 227
IC50 [2]: 103 nM
Ratio IC50 (Homo sapiens [3]): 610
Ratio IC50 (Homo sapiens [4]): 1600
Ratio IC50 (Homo sapiens [5]): 605
Ratio IC50 (Homo sapiens [7]): 4330
Ratio IC50 (Homo sapiens [8]): 636
IC50 [9]: 428 nM
IC50 [10]: 703 nM
IC50 [11]: 266 nM
Ratio IC50 (Homo sapiens [12]): 234
half-life [13]: 2.3 h
clearance [14]: 1.4 mL/min/kg
Ratio IC50 (Homo sapiens [15]): 1600
IC50 [16]: 464 nM
IC50 [17]: 512 nM
IC50 [18]: 1900 nM
IC50 [19]: 0.4 to 0.44 nM
IC50 [20]: 706 nM
Ratio IC50 (Homo sapiens [21]): 1060
Ratio IC50 (Homo sapiens [22]): 1170
IC50 [23]: 280 nM
SMILES: CC(C)C(=O)N1CCO[C@@H](c2nc(-c3ccc(C(=O)Nc4cc(C(F)(F)F)ccn4)cc3F)c3c(N)nccn23)C1
IC50 [6]: 15000 nM

— ChEMBL document CHEMBL4052776, “Discovery of 3-morpholino-imidazole[1,5-a]pyrazine BTK inhibitors for rheumatoid arthritis” (Bioorg Med Chem Lett, 2017)
